Measured values as given in the METLIN SMRT retention time set (Domingo-Almenara et al. 2019).

Test: gradient 5% acetonitrile 3 min, to 50% in 2 min, to 85% in 15 min, held 3 min, 100 µL/min
Conditions: column: Zorbax Extend-C18 2.1 x 50 mm; eluents: water / acetonitrile, 0.1% formic acid
In short: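 Values are retention times taken from adduct peaks that software picked and an analyst inspected. The pure standards were run as mixtures of ~100 molecules on HPLC linked to a quadrupole time-of-flight mass spectrometer, in positive and negative ionization mode. A Zorbax Extend-C18 column (2.1 × 50 mm, 1.8 μm) was used at 100 μL/min with water and acetonitrile, each including 0.1% formic acid.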
An RP-LC retention time of 972 s was found for `CCc1ccc(C2=Nc3cccnc3N(CC(=O)Nc3ccc(C(C)=O)cc3)C(=O)C2)cc1` in this work. An RP-LC retention time of 879 s was found for `CC(C)NC(=O)c1cc2cc(Br)ccc2[nH]1` in this work. An RP-LC retention time of 706 s was found for `O=C(CCCSc1ccc(NC(=O)c2cccs2)nn1)Nc1cnc2ccccc2c1` in this work. An RP-LC retention time of 747 s was found for `Fc1cnccc1CN1CC2(CCCCC2)CC1COc1ccncc1` (stereo not given) in this work. An RP-LC retention time of 1130 s was found for `C=CCOc1c(CCC)cc(CCC)cc1C(N)=O` in this work. An RP-LC retention time of 659 s was found for `CC(=O)N1CCc2cc(N3CC(C(=O)NCc4ccc5c(c4)OCO5)CC3=O)ccc21` (stereo not given) in this work. An RP-LC retention time of 712 s was found for `CC(C(=O)Nc1ccc2c(c1)OCCO2)n1cnc2nc3c(cc2c1=O)CCCC3` (stereo not given) in this work. An RP-LC retention time of 677 s was found for `O=C(Nc1ccc2c(c1)OCO2)C(=O)NC1CC1` in this work. An RP-LC retention time of 887 s was found for `CC(=O)Nc1ccc(NC(=O)COc2cc(C)nc(-c3ccc(C(F)(F)F)cc3)n2)cc1` in this work. An RP-LC retention time of 591 s was found for `O=C(NCCN1CCCCC1)c1ccc(-c2ccc(N3CCSCC3)nc2)cc1` in this work. An RP-LC retention time of 519 s was found for `CC(C)C(=O)Nc1nnc2n1CCS2` in this work. An RP-LC retention time of 592 s was found for `CS(=O)(=O)N1CC[C@H]2CN(Cc3cn[nH]c3-c3ccccc3)C[C@@]2(CF)C1` in this work. An RP-LC retention time of 922 s was found for `COCC(=O)Nc1cnc(-c2ccc(C(F)(F)F)cc2)nc1` in this work. An RP-LC retention time of 825 s was found for `Cc1cc(=O)n(CC(=O)N2CCc3ccccc32)c(N2CCc3ccccc3C2)n1` in this work. An RP-LC retention time of 928 s was found for `CCOc1ccc(NC(=O)CSc2nccc(N3CCN(c4cc(C)ccc4C)CC3)n2)cc1` in this work. An RP-LC retention time of 952 s was found for `Cc1nc(-c2csc(S(=O)(=O)N3CCCC(C(=O)Nc4ccc(F)cc4F)C3)c2)no1` (stereo not given) in this work. An RP-LC retention time of 1100 s was found for `Cc1cc(C)c(S(=O)(=O)Nc2cccc(C(F)(F)F)c2)c(C)c1` in this work. An RP-LC retention time of 1040 s was found for `COc1ccc(-c2oc3c(CC=C(C)C)c(O)cc(O)c3c(=O)c2O)cc1` in this work. An RP-LC retention time of 796 s was found for `Cc1cc2nn(CC(=O)Nc3ccccc3C)c(=O)n2c(-c2ccc(F)cc2)n1` in this work. An RP-LC retention time of 786 s was found for `COc1ccccc1N1CCN(C(=O)Cn2ccc3ccc(-c4nnc(C)o4)cc32)CC1` in this work. An RP-LC retention time of 800 s was found for `COc1ccc(-c2nc(NC(=O)c3cccnc3)sc2C)cc1` in this work. An RP-LC retention time of 1230 s was found for `CCOc1ccc(-c2nc(-c3cccc(-c4ccnn4C)c3)no2)cc1` in this work. An RP-LC retention time of 668 s was found for `Cn1ccc2cc(S(=O)(=O)N3CCCC(C(=O)NCCN4CCCCCC4)C3)ccc21` (stereo not given) in this work. An RP-LC retention time of 1080 s was found for `CCn1c(=O)c(N2CCCC(C(=O)NCc3cccc(Br)c3)C2)nc2ccccc21` (stereo not given) in this work. An RP-LC retention time of 965 s was found for `O=C(CSc1cc(-n2cccn2)ncn1)Nc1ccccc1Br` in this work. An RP-LC retention time of 621 s was found for `CCc1ccc2[nH]c3c(c(=O)c2c1)CN(CC(=O)NCc1ccccc1OC)CC3` in this work. An RP-LC retention time of 1160 s was found for `Fc1ccccc1-c1noc(-c2nnn3c2COC(c2ccc(Cl)cc2)C3)n1` (stereo not given) in this work. An RP-LC retention time of 582 s was found for `Cc1nc2c(n1C)CN(C(=O)Cc1ccc(F)cc1)CC2` in this work. An RP-LC retention time of 757 s was found for `CCc1ccccc1NC(=O)Cn1ncc2c(c1=O)N(CC1CC1)C(=O)CS2` in this work. An RP-LC retention time of 712 s was found for `Cc1ccccc1Nc1c(-c2ccc(N3CCOCC3)cc2)nc2ccccn12` in this work. An RP-LC retention time of 1100 s was found for `COc1cccc(-c2nnc(Cc3nc(-c4cccc(C(F)(F)F)c4)no3)o2)c1` in this work. An RP-LC retention time of 929 s was found for `Cn1cnc2c(C(=O)NC3CCCCCC3)nn(-c3ccc(Cl)cc3)c2c1=O` in this work. An RP-LC retention time of 672 s was found for `O=C(Cn1cnc2nc(N3CCCC(C(=O)NC4CC4)C3)sc2c1=O)Nc1ccc(F)cc1` (stereo not given) in this work. An RP-LC retention time of 1140 s was found for `O=S(=O)(c1cccc(C(F)(F)F)c1)N1CCc2nc(-c3ccccc3)ncc2C1` in this work. An RP-LC retention time of 791 s was found for `CCC(=O)Nc1ccc(-n2cnc(C(=O)NCc3ccc(C)c(C)c3)c2)nc1` in this work. An RP-LC retention time of 950 s was found for `Cc1ccc(CNC(=O)Cn2c(=O)cc(-c3nc(C4CC4)no3)c3ccccc32)cc1` in this work. An RP-LC retention time of 726 s was found for `Cc1ccc(Nc2c(-c3ccc(O)cc3)nc3ccc(Br)cn23)cc1` in this work. An RP-LC retention time of 1140 s was found for `O=C(Cc1csc(-c2ccccc2)n1)Nc1nc(-c2ccc(F)cc2)cs1` in this work. An RP-LC retention time of 692 s was found for `CCOc1ccc(CNC(=O)C2CCN(S(=O)(=O)c3cn(C)cn3)CC2)cc1` in this work. An RP-LC retention time of 782 s was found for `O=C(CSc1ccc(-c2ccc3c(c2)OCO3)nn1)Nc1ccc2c(c1)OCCO2` in this work. An RP-LC retention time of 818 s was found for `CC(C)NC(=O)c1ccc(OCC2CCCN(C(=O)c3cccs3)C2)cc1` (stereo not given) in this work. An RP-LC retention time of 1060 s was found for `Cc1ccc(S(=O)(=O)CCC(=O)N2CCCC2c2nc(-c3ccc(Cl)cc3)no2)cc1` (stereo not given) in this work. An RP-LC retention time of 989 s was found for `Cc1cc(C)cc(NC(=O)CSc2nccc(N3CCN(c4cc(C)ccc4C)CC3)n2)c1` in this work. An RP-LC retention time of 621 s was found for `Cc1nc(OCC(=O)NCc2ccccc2)c2ccccc2n1` in this work. An RP-LC retention time of 751 s was found for `COc1cc(NC(=O)C2CCN(S(=O)(=O)c3cn(C(C)C)cn3)CC2)cc(OC)c1` in this work. An RP-LC retention time of 1080 s was found for `CC1CCN(S(=O)(=O)c2cc(C(=O)NCc3ccc(Br)cc3)n(C)c2)CC1` in this work. An RP-LC retention time of 788 s was found for `CN1C(=O)C(C)(C(=O)Nc2ccccc2)Oc2cccnc21` (stereo not given) in this work. An RP-LC retention time of 729 s was found for `COc1cccc2sc(N(C)CC(=O)Nc3ccc(-n4cnnn4)cc3)nc12` in this work. An RP-LC retention time of 614 s was found for `CC(C)n1c(CNC(=O)C2CC(=O)N(c3n[nH]c4ccccc34)C2)nc2ccccc21` (stereo not given) in this work. An RP-LC retention time of 592 s was found for `CCC(Oc1ccc(=O)n(-c2ccc(F)cc2)n1)C(=O)Nc1cc(OC)c(OC)c(OC)c1` (stereo not given) in this work. An RP-LC retention time of 780 s was found for `COC(=O)c1cn(CC(=O)Nc2cc(Cl)ccc2OC)c2nc(C)ccc2c1=O` in this work. An RP-LC retention time of 678 s was found for `O=C(NCc1ccc(Cl)cc1)c1cn2c(n1)COCC2` in this work. An RP-LC retention time of 708 s was found for `O=C(c1ccc(N2CCCC2=O)cc1)N1CCCn2nc(-c3ccc(F)cc3)cc2C1` in this work. An RP-LC retention time of 752 s was found for `COc1ccc(C)cc1NC(=O)Cn1nc2cc(-c3ccccc3)nc(C)n2c1=O` in this work. An RP-LC retention time of 887 s was found for `O=c1n(Cc2ccc(F)cc2)nc2c(S(=O)(=O)N3CCCCC3)cccn12` in this work. An RP-LC retention time of 626 s was found for `CCOCC(=O)N1CC(F)(F)C[C@H]1c1nc(C(=O)NC)no1` in this work. An RP-LC retention time of 1190 s was found for `Cc1sc(NC(=O)c2cccc(Cn3cc(Br)cn3)c2)nc1-c1ccccc1` in this work. An RP-LC retention time of 816 s was found for `COC[C@@H]1CN(C(=O)c2occc2C)C[C@H]1c1nc(C2CC2)no1` in this work. An RP-LC retention time of 774 s was found for `O=S(=O)(c1ccc(F)cc1)N1CCC(n2cnnc2-c2ccccc2)CC1` in this work. An RP-LC retention time of 875 s was found for `CN(C)c1ccc(-c2noc(CCC(=O)Nc3ccc4c(c3)OCCO4)n2)cc1` in this work. An RP-LC retention time of 1360 s was found for `Cc1ccc(-c2ncc3c(=O)n(Cc4ccc(Cl)cc4)c(=O)n(C)c3n2)cc1` in this work. An RP-LC retention time of 660 s was found for `Cc1ccc2c(C(=O)NCc3ccc(F)cc3F)cc(NC(=O)C(C)C)cc2n1` in this work. An RP-LC retention time of 838 s was found for `CNC(=O)N1CCCC(c2cccc(C(=O)NCc3ccccc3C(F)(F)F)c2)C1` (stereo not given) in this work. An RP-LC retention time of 596 s was found for `CCN1CCCC1CNC(=O)CN1C(=O)C2CCCCN2c2ccc(C(=O)N(C)C)cc21` (stereo not given) in this work. An RP-LC retention time of 587 s was found for `COC(=O)Nc1ccc2c(c1)C(=O)N(C)CCO2` in this work.
